Measurements from ChEMBL document CHEMBL1122576 (J Med Chem, 1984).

Key:
[1] = test system: Rattus norvegicus; test: Dose that decreased sorbitol accumulation by 50% in the sciatic nerve in the galactosemic rat model after administration for 3 weeks in the diet; type: functional
[2] = test system: Rattus norvegicus; test: Dose that decreased galactitol accumulation by 50% in the sciatic nerve in the galactosemic rat model after administration for 4 days in the diet; type: functional
[3] = target: Aldo-keto reductase family 1 member B1 (Bos taurus, UniProt P16116); test: Inhibition of bovine lens aldose reductase with DL-glyceraldehyde as substrate
[4] = test system: Rattus norvegicus; test: Dose that decreased galactitol accumulation by 50% in the sciatic nerve in the galactosemic rat model after administration for 4 days in the diet; 7.3+/-2.3 mg/(kg day); type: functional
[5] = test system: Rattus norvegicus; test: Dose that decreased sorbitol accumulation by 50% in the sciatic nerve in the galactosemic rat model after administration for 3 weeks in the diet; 4.8+/- 2.4 mg/(kg day); type: functional

Row | IC50 [3] | SMILES | Dose [1] | Dose [2] | Dose [4] | Dose [5]
1 | 2.7 µM | O=C(O)CN1C(=O)c2cccc3cccc(c23)C1=O [ALRESTATIN] | ~1000 mg/kg/day | ~900 mg/kg/day |  | 
2 |  | COc1ccc2c(C(=S)N(C)CC(=O)O)cccc2c1C(F)(F)F [TOLRESTAT] |  |  | 7.3 mg/kg/day | 4.8 mg/kg/day
